Source: patent US5081131A, “Omega-((hetero)alkyl)benz(cd)-indol-2-amines” (American Cyanamid Company, priority 1988, dated 1992)
Counter-ions that a name gives are not always drawn.

Experiments:
[1] = tested on: thevetin-induced arrhythmia in guinea pigs; test: Thevetin (cardiac glycoside)-induced arrhythmia in guinea pigs; type: in vivo, guinea pig
Method: Male guinea pigs, weighing 300-500 g each, from Summit View Farms, Belvidere, N.J., were anesthetized by intraperitoneal adminstration of urethan at 1500 mg/kg. The animals were then restrained in a supine position. Electrocardiogram leads were attached to the four limbs and Lead II of the electrocardiogram was monitored.
The neck region was exposed and the jugular vein was cannulated. The test compounds were dissolved in saline and administered intravenously at the indicated doses, via a cannula which was then flushed with saline. Five minutes after the test compound was administered, thevetin dissolved in saline was administered by infusion through a cannula at a dose of 0.1 mg/kg/minute in a volume of 0.1 ml. The time until the P wave of the electrocardiogram disappeared was determined.

[2] = tested on: spontaneously hypertensive rats; test: Hypotensive activity in spontaneously hypertensive rats (MABP); type: in vivo, rat (Okamoto strain); settings: SHR, gavage, two doses of 10 mg/kg or less 24 h apart, MABP at 28 h; average baseline 160±1.5 mm Hg
Method: The novel compounds of the present invention are active hypotensive agents and were tested for hypotensive activity by the method of P. S. Chan and D. Poorvin, Clinical and Experimental Hypertension, 1 (6), 817-830 (1979). Male, 16 week old, spontaneously hypertensive rats of the Okamoto strain, from Taconic Farms, Germantown, N.Y., having an average mean arterial blood pressure of 160±1.5 mm of mercury, were used in the test. One to 4 rats were used per test compound. A rat was dosed by gavage with a test compound, suspended in 2% pre-boiled starch at a concentration of 50 mg/ml, at a doses of 10 mg/kg of body weight or less, with 0.9% sodium chloride loading at a dose of 25 ml/kg of body weight. A second identical dose of the test compound, without sodium chloride loading was given 24 hours later. At 28 hours after initial dose the mean arterial blood pressure (MABP) was measured. The procedure was repeated in a second and third rat when necessary.

[3] = molecular target: T1, thromboxane synthetase enzyme (Rattus norvegicus, UniProt P49430); test: Thromboxane synthetase enzyme inhibition (TXB2 formation in washed platelets, RIA); type: cell-based, spontaneously hypertensive rat; settings: 1×10^-4 Molar, SHR platelets, 10 min at 37° C.; for inhibition at 100 µM: read-out: % Inhibition (Thromboxane Synthetase Enzyme Inhibition)
T1 construct: endogenous in cells; host or cells: washed platelets from arterial blood of male Okamoto-Aoki spontaneously hypertensive rats (animals from Taconic Farms, Germantown, N.Y.)
T1 sequence (P49430 1-533): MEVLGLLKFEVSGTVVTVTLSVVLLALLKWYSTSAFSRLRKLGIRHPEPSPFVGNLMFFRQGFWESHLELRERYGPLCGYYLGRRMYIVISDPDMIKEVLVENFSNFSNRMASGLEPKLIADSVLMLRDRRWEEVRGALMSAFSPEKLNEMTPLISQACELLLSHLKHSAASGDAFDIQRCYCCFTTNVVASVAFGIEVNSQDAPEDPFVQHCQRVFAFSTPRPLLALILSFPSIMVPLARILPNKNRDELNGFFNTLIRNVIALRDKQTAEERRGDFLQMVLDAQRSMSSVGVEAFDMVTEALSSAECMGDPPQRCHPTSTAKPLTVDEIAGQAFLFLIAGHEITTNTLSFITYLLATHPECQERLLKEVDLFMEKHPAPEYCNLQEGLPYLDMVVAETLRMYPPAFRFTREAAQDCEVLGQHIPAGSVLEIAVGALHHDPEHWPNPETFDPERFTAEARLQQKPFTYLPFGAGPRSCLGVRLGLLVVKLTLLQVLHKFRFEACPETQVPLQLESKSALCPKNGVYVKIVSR
Method: The blood was diluted with 3 ml cold saline and centrifuged at room temperature for 15 min at 468×g. The platelet rich plasma (PRP) was separated. The platelets were isolated by certrifuging the PRP for 10 minutes at 1060×g and washed in 4 ml cold oxygenated Krebs phosphate buffer, pH 7.4. The chilled platelets recovered from centrifuging at 800×g for 10 minutes were resuspended in oxygenated Krebs phosphate buffer and diluted to contain 4.0-6.0×10^4 platelets/micro-liters. The inhibition of TX formation was studied by determining the concentration of thromboxane B2 (TXB2), the stable hydrolysis product of TXA2. Assay samples prepared on ice, contained 200 micro-liters platelet suspension, 50 micro-liters saline, and 50 micro-liters […] (saline) or drug under study. The test drug (0.003 mole) was dissolved in 5 ml of saline. […] The assay samples were incubated for 10 minutes at 37° C. in a metabolic shaker at about 60 rpm. The reaction was terminated by immersing the tubes in an ice bath and adding 50 micro-liters of 0.5M citric acid. The samples were centrifuged for 10 minutes at 2000 rpm at 4° C., and the supernatants were decanted.

[4] = intravenous doses as high as 20 mg/kg

Row | SMILES | inhibition at 100 µM [3] [%] | Avg. MABP in mm Hg (No. of Rats) [2] [mm Hg] | further results
1 | O=C(O)c1ccc(OCCn2ccnc2)cc1 [Dazoxiben hydrochloride, 4-(2-(1H-imidazol-l-yl)ethoxy)benzoic acid, monohydrochloride, reference compound] |  |  | activity in thevetin-induced arrhythmia test [1, 4]: inactive; time before arrhythmia occurred [1, 4]: 22.2 ± 1.9 min
2 | Brc1ccc2c3c(cccc13)C(NCCCCc1cccnc1)=N2.Cl.Cl [6-Bromo-N-(4-(3-pyridinyl)butyl)benz(cd)indol-2-amine, dihydrochloride] |  | 99 | % Inhibition (Thromboxane Synthetase Enzyme Inhibition) [3]: 89%
3 | O=C(O)/C=C/C(=O)O.c1cc2c3c(cccc3c1)C(NCCCn1cnc3ccccc31)=N2 [N-(3-(1H-benzimidazol-1-yl)propyl)benz(cd)indol-2-amine, fumarate] |  | 123 | % Inhibition (Thromboxane Synthetase Enzyme Inhibition) [3]: 90%
4 | O=C(O)/C=C/C(=O)O.c1cc2c3c(cccc3c1)C(NCCCCCn1ccnc1)=N2 [N-(5-(1H-imidazol-1-yl)pentyl)benz(cd)indol-2-amine, fumarate] | 95 | 111 | 
5 | c1cc2c3c(cccc3c1)C(NCCCn1cnc3ccccc31)=N2 [N-(3-(1H-benzimidazol-1-yl)propyl)benz(cd)indol-2-amine] |  | 124 | % Inhibition (Thromboxane Synthetase Enzyme Inhibition) [3]: 60%
6 | Clc1cc(Cl)c2cccc3c2c1N=C3NCCCCCCCCCCn1ccnc1 [6,8-Dichloro-N-(10-(1H-imidazol-1-yl)decyl)benz(cd)indol-2-amine] | 96 | 121 | 
7 | CC(C)NC[C@H](O)COc1cccc2ccccc12 (racemic) [Propanolol, reference compound] |  |  | activity in thevetin-induced arrhythmia test ([1]; intravenous dose of 2 mg/kg): active; time protected before arrhythmia occurred ([1]; intravenous dose of 2 mg/kg): 47.0 ± 4.1 min
8 | Clc1cc(Cl)c2cccc3c2c1N=C3NCCCn1ccnc1 [6,8-Dichloro-N-(3-(1H-imidazol-1-yl)propyl)benz(cd)indol-2-amine] | 97 | 102 | 
9 | O=C(O)/C=C/C(=O)O.c1cncc(CCCNC2=Nc3cccc4cccc2c34)c1 [N-(3-(3-Pyridinyl)propyl)benz(cd)indol-2-amine, fumarate] | 97 | 93 | 
10 | Clc1cc(Cl)c2cccc3c2c1N=C3NCCCCc1cccnc1 [6,8-Dichloro-N-(4-(3-pyridinyl)butyl)benz(cd)indol-2-amine] | 93 | 102 | 
11 | CC(CNC1=Nc2cccc3cccc1c23)Cc1cccnc1.O=C(O)/C=C/C(=O)O (stereo not shown) [N-(2-Methyl-3-(3-pyridinyl)propyl)benz(cd)indol-2-amine, fumarate] | 99 | 124 | 
12 | O=C(O)/C=C/C(=O)O.c1coc(CNC2=Nc3cccc4cccc2c34)c1 [N-(2-Furanylmethyl)benz(cd)indol-2-amine fumarate] | 93 | 142 | 
13 | O=C(O)/C=C/C(=O)O.c1cncc(OCCCNC2=Nc3cccc4cccc2c34)c1 [N-(3-(3-Pyridinyloxy)propyl)benz(cd)indol-2-amine, fumarate] | 94 | 116 | 
14 | CC(CCCNC1=Nc2cccc3cccc1c23)n1ccnc1.O=C(O)/C=C/C(=O)O (stereo not shown) [N-(4-(1H-imidazol-1-yl)pentyl)benz(cd)indol-2-amine, fumarate] | 99 | 97 | 
15 | O=C(O)/C=C/C(=O)O.c1ccc(OCCNC2=Nc3cccc4cccc2c34)nc1 [N-(2-(2-Pyridinyloxy)ethyl)benz(cd)indol-2-amine fumarate] | 88 | 140 | 
16 | O=C(O)/C=C/C(=O)O.c1ccc(CCNC2=Nc3cccc4cccc2c34)nc1 [N-(2-(2-Pyridinyl)ethyl)benz(cd)indol-2-amine, fumarate] | 94 | 137 | 
17 | O=C(O)/C=C/C(=O)O.c1csc(CNC2=Nc3cccc4cccc2c34)c1 [N-(2-Thienylmethyl)benz(cd)indol-2-amine, fumarate] | 93 | 141 | 
18 | Clc1cc(Cl)c2cccc3c2c1N=C3NCCCCn1ccnc1 [6,8-Dichloro-N-(4-(1H-imidazol-1-yl)butyl)benz(cd)indol-2-amine] | 99 | 115 | 
19 | Brc1ccc2c3c(cccc13)C(NCCCn1ccnc1)=N2 [6-Bromo-N-(3-(1H-imidazol-l-yl)propyl)benz(cd)indol-2-amine, dihydrochloride] | 85 | 117 | 

The next lines start with results.

Row | inhibition at 100 µM [3] [%] | SMILES | Avg. MABP in mm Hg (No. of Rats) [2] [mm Hg] | further results
20 | 94.5 | O=C(c1ccccc1)N(CCCn1ccnc1)C1=Nc2cccc3cccc1c23 [N-Benz(cd)indol-2-yl-N-(3-(1H-imidazol-1-yl)propyl)benzamide] | 95 | 
21 | 96 | CC(CCNC1=Nc2cccc3cccc1c23)c1cccnc1 (stereo not shown) [N-(3-(3-Pyridinyl)butyl)benz(cd)indol-2-amine] | 110 | 
22 | 93 | O=S(=O)(c1ccccc1)N(CCCn1ccnc1)C1=Nc2cccc3cccc1c23 [N-Benz(cd)indol-2-yl-N-(3-(1H-imidazol-1-yl)propyl)benzenesulfonamide] | 135 | 
23 | 100 | Cl.Cl.c1cc2c3c(cccc3c1)C(NCCCCCCCCn1ccnc1)=N2 [N-(8-(1H-imidazol-1-yl)octyl)benz(cd)indol-2-amine, dihydrochloride] | 111 | 
24 | 93 | COc1ccccc1C(=O)N(CCCCn1ccnc1)C1=Nc2cccc3cccc1c23 [N-Benz(cd)indol-2-yl-N-(4-(1H-imidazol-1-yl)butyl)-2-methoxybenzamide] | 76 | 
25 | 97 | c1cc2c3c(cccc3c1)C(NCc1ccncc1)=N2 [N-(4-Pyridinylmethyl)benz(cd)indol-2-amine, sesqui-fumarate] | 90 | 
26 | 98.5 | CC(=O)N(CCCCn1ccnc1)C1=Nc2cccc3cccc1c23 [N-Benz(cd)indol-2-yl-N-(4-(1H-imidazol-1-yl)butyl)acetamide] | 81 | 
27 | 92 | CC(CCNC1=Nc2cccc3cccc1c23)n1ccnc1 (stereo not drawn) [N-(3-(1H-imidazol-l-yl)butyl)benz(cd) indol-2-amine, dihydrochloride] | 104 | 
28 | 79 | Cc1ccc(S(=O)(=O)Nc2ccc3c4c(cccc24)C(NCCCCn2ccnc2)=N3)cc1 [monoacetate] | 125 | 
29 | 100 | CC(CCNC1=Nc2cccc3cccc1c23)CCn1ccnc1 (stereo not shown) [N-(5-(1H-imidazol-1-yl)-3-methylpentyl)benz(cd)indol-2-amine,dihydrochloride] | 92 | 
